# Assay results published in US8003689B2, “Metabolites of selective androgen receptor modulators and methods of use thereof” (GTx, Inc., priority 2008, dated 2011).
# Legend:
# CYP2C9 = CYP2C9 induction in primary human hepatocytes; assay type: in vitro ADME
# Method: (§1) Cytochrome P450 enzyme inhibition was measured using human, cDNA-expressed CYP3A4, 2D6, 2C19, 2C9, and 1A2 enzymes. Analogues of the model substrate coumarin were utilized for each isozyme, at a concentration near the apparent Km of this substrate. Compound stocks were tested using an 8-point dose-response curve in duplicate (ranging from […]). […] For microsome-based CYP inhibition measurements, all substrates were utilized at the approximate Km value. […] Duplicate wells in the induction assay were used to measure both functionality and expression of the CYP enzyme.
# CYP3A4 = CYP3A4 induction in primary human hepatocytes; assay type: in vitro ADME
# Method: as §1
# [1] = Metabolic stability in primary monkey hepatocytes; assay type: in vitro ADME
# [2] = test system: primary monkey hepatocytes; test: Metabolic stability in primary monkey hepatocytes; assay type: in vitro ADME
# [3] = Metabolic stability in human liver microsomes; assay type: in vitro ADME
# Method: Human liver microsomes and hepatocytes were utilized at a final concentration of 1.0 mg/ml and 1×10^6 cells/ml, respectively. Duplicate wells were used for each time point (0, 5, 10, 30, and 60 minutes). The concentrations of parent drug remaining in each well were analyzed on an MDS/Sciex API4000 Q Trap system with electrospray ionization (ESI) in the positive and/or negative SIM mode, depending on the test compound(s). […] For hepatocyte assays, cell viability was also monitored at each time point (from replicate wells) using the Trypan Blue exclusion method.
# [4] = test system: Caco-2 epithelial monolayers; test: Permeability and efflux potential across Caco-2 monolayers; design: Papp A→B / Papp B→A: dose or concentration left out as unconfirmed
# Method: (§2) Permeability (and efflux potential) was measured in the Apical (pH 6.5) to Basolateral (pH 7.4) and Basolateral (pH 7.4) to Apical (pH 6.5) directions across polarized, Caco-2 epithelial monolayers. Compound stocks were tested at a final concentration of […]. The concentration of drug in the receiver well was measured by LC/MS/MS using a standard curve.
# [5] = as above; design: Papp A→B / Papp B→A: dose or concentration left out as unconfirmed; conditions: human
# Method: as §2
# [6] = Phase I microsome reactions of Compound II, monkey; assay type: in vitro ADME; conditions: Monkey liver microsomes; not absolutely quantitative (n = 2)
# Method: (§3) Test compound stock solutions were prepared in acetonitrile at 10 mM, 200 times (200×) the final concentration. The stock solutions were added in incubation mixtures to obtain the final drug concentration of 50 μM, containing 0.5% acetonitrile. A concentration of 50 μM was utilized to allow for detection of possible minor metabolites (select studies were run at 10 μM for confirmatory purposes). Human, monkey, dog, rat, mouse microsomes were all utilized at a final concentration of 1.0 mg/ml. Duplicate wells were used for each time point (0 and 120 minutes). Incubation was conducted at 37° C. in a shaking water bath. The final volume for each reaction was 200 μl, composed of: 66 μl of 0.2 M KPO4 buffer, (pH 7.4); 73 μl of H2O, 10 μl of 20 mg/ml microsome stock; 1.0 μl of 10 mM compound stock, and 50 μl of NRS solution. The NRS solution consisting of glucose-6-phosphate dehydrogenase, NADP+, MgCl2, and glucose-6-phosphate, was prepared as described in manufacturer's instructions. […]
# (§4) The mass spectrometers were operated in EMS mode in order to detect all possible metabolites. […] Intensity of putative metabolite was semi-quantitated using the peak area of the metabolites in XIC, which was subtracted with the peak area of time zero control at the same retention time with the metabolites.
# [7] = Phase I microsome reactions of Compound II, dog; assay type: in vitro ADME; conditions: Dog liver microsomes; not absolutely quantitative (n = 2)
# Method: as §3, §4
# Rat Hepatocytes [8] = test: Hepatocyte assay of Compound II, rat; assay type: in vitro ADME
# Method: (§5) The stock solutions (10 mM in acetonitrile) for the test compounds were diluted in the incubation media to a working concentration of 100 μM (2×). Thawing frozen hepatocytes was followed by performing Percoll purification as described in manufacturer's manual. Primary hepatocytes were resuspended in incubation media and viability was measured using trypan blue exclusion method. The initial viability score was registered as ‘T0’ (time point of 0 minute), and viability was required to be at least ˜70% at this point for the experiment to continue. Cells were washed a second time (60 g for 5 minutes) with supplemented DMEM and the final concentration was adjusted to […] (2×). Samples were set up in 48-well plates, using 2 wells per each time point. A trypan blue well was also set up for viability analysis at the end of study (T=120 min). 100 μl of the 2× drug solution was combined with 100 μl of the 2× hepatocyte suspension. Final concentration was […] (200,000 cells/well) and 50 μM compound. Final concentration of acetonitrile was 0.5%. […]
# as §4
# [9] = Phase I and II microsome reactions (+UDPGA) of Compound II, mouse; assay type: in vitro ADME; conditions: Mouse liver microsomes (+UDPGA)
# Method: (§6) For microsome reactions performed under conditions allowing for both phase I and II metabolism, the initial procedure and reaction conditions were followed similarly as described above. Additional cofactors were also included in each reaction to maximize the potential for in vitro glucuronidation to occur. UDPGA was added at a final concentration of 5.0 mM. Saccharolactone (β-glucuronidase inhibitor) and alamethicin (pore forming peptide) were added to each reaction at a final concentration of 5.0 mM and 50 μg/ml, respectively.
# (§7) Each 200 μl microsomal reaction solution was composed of: 66 μl of 0.2 M KPO4 buffer, (pH 7.4); 50 μl of NRS solution (as described above); 66 μl of UDPGA (15 mM stock); 5.0 μl of saccharolactone (200 mM stock); 0.5 μl of alamethicin (20 mg/ml); 0.6 μl of MgCl2 (1 M stock); and 10 μl of microsomes (20 mg/ml stock).
# (§8) At the end of incubation, 100 μl of reaction solution under incubation was transferred to a sample well containing 100 μl of ice cold acetonitrile to quench the reaction. […]
# as §4
# mouse hepatocytes = test: Hepatocyte assay of Compound II, mouse; assay type: in vitro ADME
# Method: as §5, §4
# dog hepatocytes = test: Hepatocyte assay of Compound II, dog; assay type: in vitro ADME
# Method: as §5, §4
# [10] = Phase I microsome reactions of Compound II, mouse; assay type: in vitro ADME; conditions: Mouse liver microsomes; not absolutely quantitative (n = 2)
# Method: as §3, §4
# [11] = Phase I and II microsome reactions (+UDPGA) of Compound II, monkey; assay type: in vitro ADME; conditions: Monkey liver microsomes (+UDPGA)
# Method: as §6, §7, §8, §4
# human hepatocytes = test: Hepatocyte assay of Compound II, human; assay type: in vitro ADME
# Method: as §5, §4
# [12] = Phase I and II microsome reactions (+UDPGA) of Compound II, rat; assay type: in vitro ADME; conditions: Rat liver microsomes (+UDPGA)
# Method: as §6, §7, §8, §4
# [13] = Phase I and II microsome reactions (+UDPGA) of Compound II, human; assay type: in vitro ADME; conditions: Human liver microsomes (+UDPGA)
# Method: as §6, §7, §8, §4
# monkey hepatocytes = test: Hepatocyte assay of Compound II, monkey; assay type: in vitro ADME
# Method: as §5, §4
# [14] = Phase I and II microsome reactions (+UDPGA) of Compound II, dog; assay type: in vitro ADME; conditions: Dog liver microsomes (+UDPGA)
# Method: as §6, §7, §8, §4
# [15] = Phase I microsome reactions of Compound II, human; assay type: in vitro ADME; conditions: Human liver microsomes; not absolutely quantitative (n = 2)
# Method: as §3, §4
# [16] = Phase I microsome reactions of Compound II, rat; assay type: in vitro ADME; conditions: Rat liver microsomes; not absolutely quantitative (n = 2)
# Method: as §3, §4
# [17] = In vitro metabolites of Compound I in rat liver microsomes; assay type: in vitro ADME; conditions: metabolite formed from Compound I
# Rat Hepatocytes [18] = test: In vitro metabolites of Compound I in rat hepatocytes; assay type: in vitro ADME; conditions: metabolite formed from Compound I
# [19] = Human Liver Microsomes, Phase I
# [20] = Human Liver Microsomes, Phase I + II
smiles,measurement,setting,value
"C[C@](O)(COc1ccc(C#N)cc1)C(=O)Nc1ccc(C#N)c(C(F)(F)F)c1 [Compound I, (S)—N-(4-cyano-3-(trifluoromethyl)phenyl)-3-(4-cyanophenoxy)-2-hydroxy-2-methylpropanamide]",induction of CYP2C9 activity,CYP2C9,does not induce
same,induction of CYP3A4 activity,CYP3A4,does not induce
same,CLint scaled,[1],< 1 mL/min/kg
same,Half-Life,[2],Stable
same,Half-Life Phase I,[3]; [19],Stable
same,microsomal CLint,[3]; [19],< 1000 µL/min/mg
same,CLint Phase I + II,[3]; [20],<1000 µL/min/mg
same,Half-Life Phase I + II,[3]; [20],Stable
same,in vitro half-life (stability in words),"[3]; microsomal and hepatocyte assays, both phase I and phase I/II metabolic conditions",mostly stable
same,efflux potential,[4]; Caco-2 permeability assays,low
same,Permeability Classification,[4]; classified from Papp (A-B),high
same,Papp B→A,[5]; Caco-2,29 ×10⁻⁶ cm/s
same,Papp A→B,"[5]; Caco-2, Permeability Classification, classified from Papp (A-B)",> 10 ×10⁻⁶ cm/s
N#Cc1ccc(N)cc1Cl [Compound 151],Relative Percent of Extracted Ion Chromatogram (XIC) for Phase I metabolites of Compound II,[6],4%
same,Relative Percent of Extracted Ion Chromatogram (XIC) for Phase I metabolites of Compound II,[7],6%
same,Relative Percent of XIC for Phase I and II Metabolites of Compound II,Rat Hepatocytes [8],0.9%
same,Relative Percent of XIC for Phase I and Glucuronide Metabolites of Compound II,[9],1.1%
same,Relative Percent of XIC for Phase I and II Metabolites of Compound II,mouse hepatocytes,0.8%
same,Relative Percent of XIC for Phase I and II Metabolites of Compound II,dog hepatocytes,4.7%
same,Relative Percent of Extracted Ion Chromatogram (XIC) for Phase I metabolites of Compound II,[10],4%
same,Relative Percent of XIC for Phase I and Glucuronide Metabolites of Compound II,[11],1.6%
same,Relative Percent of XIC for Phase I and II Metabolites of Compound II,human hepatocytes,0.5%
same,Relative Percent of XIC for Phase I and Glucuronide Metabolites of Compound II,[12],1.4%
same,Relative Percent of XIC for Phase I and Glucuronide Metabolites of Compound II,[13],0.8%
same,Relative Percent of XIC for Phase I and II Metabolites of Compound II,monkey hepatocytes,2.2%
same,Relative Percent of XIC for Phase I and Glucuronide Metabolites of Compound II,[14],2.9%
same,Relative Percent of Extracted Ion Chromatogram (XIC) for Phase I metabolites of Compound II,[15],3%
same,Relative Percent of Extracted Ion Chromatogram (XIC) for Phase I metabolites of Compound II,[16],4%
C[C@@](COc1ccc(C#N)cc1)(OC1OC(C(=O)O)C(O)C(O)C1O)C(=O)Nc1ccc(C#N)c(C(F)(F)F)c1 (stereo partly drawn) [Compound 564],relative abundance of in vitro metabolites of Compound I (m/z 388),[17],1.92
same,relative abundance of in vitro metabolites of Compound I (m/z 388),Rat Hepatocytes [18],0.37
